Type in all cases: in vivo
Experiment [1] deals with Alopecurus myosuroides (ALOMY). Kind of experiment: Pre-emergence herbicidal activity, glasshouse pot test. On the set-up: key: 5=total damage to plant; 0=no damage to plant. The conditions noted are these: 1000 g/ha, pre-emergence spray, evaluated after 13 days, damage score 0-5. Summed up: (§1)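 Seeds sown in standard soil in pots, kept one day in glasshouse (24/16 °C day/night, 14 h light, 65% humidity), then sprayed pre-emergence with aqueous solution from acetone/water (50:50) formulation with 0.5% Tween 20. Grown under same conditions, watered twice daily; damage scored after 13 days (0 = none, 5 = total).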

In experiment [2] the test system is Avena fatua (AVEFA). The experiment is described as above. The conditions noted are these: 1000 g/ha, pre-emergence spray, evaluated after 13 days, damage score 0-5. On the set-up: key: 5=total damage to plant; 0=no damage to plant. The essentials:
as §1

In experiment [3] the test system is Echinochloa crus-galli (ECHCG). The description is as above. Set-up: key: 5=total damage to plant; 0=no damage to plant. Particulars: 1000 g/ha, pre-emergence spray, evaluated after 13 days, damage score 0-5. Summed up:
as §1

The subject of experiment [4] is Lolium perenne (LOLPE). Described as above. Set-up: key: 5=total damage to plant; 0=no damage to plant. Particulars: 1000 g/ha, pre-emergence spray, evaluated after 13 days, damage score 0-5. Summed up:
as §1

Experiment [5] concerns Setaria faberi (SETFA). The experiment is described as above. On the set-up: key: 5=total damage to plant; 0=no damage to plant. The conditions noted are these: 1000 g/ha, pre-emergence spray, evaluated after 13 days, damage score 0-5. The essentials: as §1
Experiment [6] deals with Triticum aestivium (TRZAW). The description is as above. Set-up: key: 5=total damage to plant; 0=no damage to plant. Particulars: 1000 g/ha, pre-emergence spray, evaluated after 13 days, damage score 0-5. The essentials: as §1
The test system of experiment [7] is Alopecurus myosuroides (ALOMY). In words: Post-emergence herbicidal activity, glasshouse pot test. The conditions noted are these: 1000 g/ha, post-emergence spray after 8 days cultivation, evaluated after 13 days, damage score 0-5. On the set-up: key: 5=total damage to plant; 0=no damage to plant. The essentials:
(§2)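 Test species are sown in pots and cultivated 8 days before spraying with compound in aqueous acetone (50:50) plus 0.5% Tween 20. Evaluation follows 13 days later using a 0 (no damage) to 5 (total damage) rating.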

Experiment [8] concerns Echinochloa crus-galli (ECHCG). Described as above. Set-up: key: 5=total damage to plant; 0=no damage to plant. Particulars: 1000 g/ha, post-emergence spray after 8 days cultivation, evaluated after 13 days, damage score 0-5. Summed up:
as §2

In experiment [9] the test system is Lolium perenne (LOLPE). The description is as above. On the set-up: key: 5=total damage to plant; 0=no damage to plant. Particulars: 1000 g/ha, post-emergence spray after 8 days cultivation, evaluated after 13 days, damage score 0-5. Summed up: as §2
Experiment [10] has as its system Setaria faberi (SETFA). Described as above. Set-up: key: 5=total damage to plant; 0=no damage to plant. Particulars: 1000 g/ha, post-emergence spray after 8 days cultivation, evaluated after 13 days, damage score 0-5. The essentials: as §2
Experiment [11] deals with Triticum aestivium (TRZAW). Described as above. On the set-up: key: 5=total damage to plant; 0=no damage to plant. The conditions noted are these: 1000 g/ha, post-emergence spray after 8 days cultivation, evaluated after 13 days, damage score 0-5. Summed up:
as §2

Experiment [12] deals with Avena fatua (AVEFA). Described as above. Particulars: 1000 g/ha, post-emergence spray after 8 days cultivation, evaluated after 13 days, damage score 0-5. Summed up: as §2

Take `O=C1CCCCN1c1cnc(-c2cncc(F)c2)nc1C(F)(F)F` [Compound F29]: in experiment [1], the “Control of weed species after pre-emergence application, ALOMY” value was found to be 1. In the experiment on Avena fatua (AVEFA) [2], the “Control of weed species after pre-emergence application, AVEFA” value turned out to be 0. Further, the “Control of weed species after pre-emergence application, ECHCG” value in experiment [3] was 2. The “Control of weed species after pre-emergence application, LOLPE” value with Lolium perenne (LOLPE) [4] is given as 1. Also, in the experiment on Setaria faberi (SETFA) [5], the “Control of weed species after pre-emergence application, SETFA” value is recorded as 3. Besides, the “Control of weed species after pre-emergence application, TRAZW” value in experiment [6] was determined as 1. In addition, the “Control of weed species after post-emergence application, ALOMY” value in [7] worked out at 0. In addition, in [8], the “Control of weed species after post-emergence application, ECHCG” value worked out at 4. Further, the “Control of weed species after post-emergence application, LOLPE” value with Lolium perenne (LOLPE) [9] is recorded as 1. The “Control of weed species after post-emergence application, SETFA” value in the experiment with Setaria faberi (SETFA) [10] is 5. Further, the “Control of weed species after post-emergence application, TRAZW” value in experiment [11] was determined as 0. For the same molecule, in the experiment with Avena fatua (AVEFA) [12], the “Control of weed species after post-emergence application, AVEFA” value came out at 3.
For `N#CCN(C(=O)C1CC1)c1cnc(-c2cncc(F)c2)nc1C(F)(F)F` [Compound F30], the “Control of weed species after pre-emergence application, ALOMY” value in experiment [1] worked out at 0. In addition, in the experiment on Avena fatua (AVEFA) [2], the “Control of weed species after pre-emergence application, AVEFA” value is 2. Besides, the “Control of weed species after pre-emergence application, ECHCG” value in experiment [3] was determined as 3. The “Control of weed species after pre-emergence application, LOLPE” value with Lolium perenne (LOLPE) [4] was 2. Also, the “Control of weed species after pre-emergence application, SETFA” value in the experiment with Setaria faberi (SETFA) [5] stood at 4. The “Control of weed species after pre-emergence application, TRAZW” value in experiment [6] was 1. Also, the “Control of weed species after post-emergence application, ALOMY” value in experiment [7] stood at 1. Besides, the “Control of weed species after post-emergence application, ECHCG” value in experiment [8] was 4. Besides, in the experiment on Lolium perenne (LOLPE) [9], the “Control of weed species after post-emergence application, LOLPE” value is recorded as 2. In addition, in the experiment with Setaria faberi (SETFA) [10], the “Control of weed species after post-emergence application, SETFA” value was 5. In addition, in [11], the “Control of weed species after post-emergence application, TRAZW” value was 1. In the experiment on Avena fatua (AVEFA) [12], the “Control of weed species after post-emergence application, AVEFA” value was 2.
On to `CC(=O)Nc1cnc(-c2cncnc2)nc1C(F)(F)F` [Compound F31], for which the “Control of weed species after pre-emergence application, ALOMY” value in experiment [1] came to 1. For the same molecule, the “Control of weed species after pre-emergence application, AVEFA” value with Avena fatua (AVEFA) [2] is reported as 2. The “Control of weed species after pre-emergence application, ECHCG” value in [3] is given as 4. Further, in the experiment with Lolium perenne (LOLPE) [4], the “Control of weed species after pre-emergence application, LOLPE” value was found to be 1. Further, the “Control of weed species after pre-emergence application, SETFA” value with Setaria faberi (SETFA) [5] was 4. The “Control of weed species after pre-emergence application, TRAZW” value in experiment [6] was determined as 1. Besides, in [7], the “Control of weed species after post-emergence application, ALOMY” value is listed as 1. Besides, the “Control of weed species after post-emergence application, ECHCG” value in [8] stood at 4. In the experiment on Lolium perenne (LOLPE) [9], the “Control of weed species after post-emergence application, LOLPE” value came out at 2. Further, in the experiment on Setaria faberi (SETFA) [10], the “Control of weed species after post-emergence application, SETFA” value worked out at 4. Also, the “Control of weed species after post-emergence application, TRAZW” value in [11] is on record as 1. In addition, in the experiment on Avena fatua (AVEFA) [12], the “Control of weed species after post-emergence application, AVEFA” value was 3.
For `CC(C)C(=O)Nc1cnc(-c2cncnc2)nc1C(F)(F)F` [Compound F32], in [1], the “Control of weed species after pre-emergence application, ALOMY” value is 1. In addition, the “Control of weed species after pre-emergence application, AVEFA” value in the experiment on Avena fatua (AVEFA) [2] turned out to be 1. Further, the “Control of weed species after pre-emergence application, ECHCG” value in experiment [3] is reported as 4. The “Control of weed species after pre-emergence application, LOLPE” value with Lolium perenne (LOLPE) [4] is recorded as 1. Besides, the “Control of weed species after pre-emergence application, SETFA” value with Setaria faberi (SETFA) [5] is 4. Also, the “Control of weed species after pre-emergence application, TRAZW” value in [6] is 1. Moreover, the “Control of weed species after post-emergence application, ALOMY” value in experiment [7] is listed as 1. Besides, the “Control of weed species after post-emergence application, ECHCG” value in experiment [8] is 4. The “Control of weed species after post-emergence application, LOLPE” value in the experiment on Lolium perenne (LOLPE) [9] is listed as 2. Besides, in the experiment with Setaria faberi (SETFA) [10], the “Control of weed species after post-emergence application, SETFA” value came out at 4. Also, the “Control of weed species after post-emergence application, TRAZW” value in experiment [11] came out at 1. In addition, the “Control of weed species after post-emergence application, AVEFA” value in the experiment on Avena fatua (AVEFA) [12] worked out at 3.
For the molecule `CCCC(=O)Nc1cnc(-c2cncc(F)c2)nc1C(F)(F)F` [Compound F33], the “Control of weed species after pre-emergence application, ALOMY” value in experiment [1] stood at 0. The “Control of weed species after pre-emergence application, AVEFA” value in the experiment on Avena fatua (AVEFA) [2] was determined as 1. Also, in experiment [3], the “Control of weed species after pre-emergence application, ECHCG” value was 4. The “Control of weed species after pre-emergence application, LOLPE” value with Lolium perenne (LOLPE) [4] turned out to be 0. The “Control of weed species after pre-emergence application, SETFA” value with Setaria faberi (SETFA) [5] was 4. For the same molecule, the “Control of weed species after pre-emergence application, TRAZW” value in experiment [6] worked out at 1. Moreover, the “Control of weed species after post-emergence application, ALOMY” value in experiment [7] is 1. Moreover, the “Control of weed species after post-emergence application, ECHCG” value in [8] came to 4. Further, the “Control of weed species after post-emergence application, LOLPE” value with Lolium perenne (LOLPE) [9] was found to be 2. Also, in the experiment with Setaria faberi (SETFA) [10], the “Control of weed species after post-emergence application, SETFA” value is recorded as 5. Also, in experiment [11], the “Control of weed species after post-emergence application, TRAZW” value was 1. In addition, in the experiment on Avena fatua (AVEFA) [12], the “Control of weed species after post-emergence application, AVEFA” value amounted to 3.
